In publication PMC8187479, “Sugar phosphate activation of the stress sensor eIF2B” (Nature Communications, 2021):
Positions count from the first letter of the chain named.

Columns and labels:
eIF2Bα^E198K = target: T1, eIF2Bα^E198K (Homo sapiens, UniProt Q14232, E198K); assay: Isothermal titration calorimetry, eIF2Bα E198K; format: binding; conditions: ITC
T1 sequence (Q14232 1-305 E198K): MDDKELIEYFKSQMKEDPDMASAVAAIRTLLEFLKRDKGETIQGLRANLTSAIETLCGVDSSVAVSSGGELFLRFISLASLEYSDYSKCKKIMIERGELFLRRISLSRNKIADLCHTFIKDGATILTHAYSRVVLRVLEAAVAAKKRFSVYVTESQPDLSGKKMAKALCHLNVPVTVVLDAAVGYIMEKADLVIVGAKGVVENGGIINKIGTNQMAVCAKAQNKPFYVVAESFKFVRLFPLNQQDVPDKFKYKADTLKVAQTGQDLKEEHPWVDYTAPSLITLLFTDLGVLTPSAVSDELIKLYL
Protocol: (§1) Interactions between recombinant protein and sugar phosphates were conducted with a MicroCal PEAQ-ITC (Malvern Panalytical Inc.). Experiments were performed in 25 mM HEPES, 150 mM NaCl, pH 7.5 at 20 °C. […] The final titration curves were fitted using MicroCal ITC data analysis software, assuming a single binding site per monomer.

eIF2Bα^V183F [1] = target: eIF2Bα^V183F (Homo sapiens, UniProt Q14232, V183F); assay: Isothermal titration calorimetry, eIF2Bα V183F; format: binding; conditions: ITC
Protocol: as §1
Target sequence in this assay (Q14232 whole entry V183F): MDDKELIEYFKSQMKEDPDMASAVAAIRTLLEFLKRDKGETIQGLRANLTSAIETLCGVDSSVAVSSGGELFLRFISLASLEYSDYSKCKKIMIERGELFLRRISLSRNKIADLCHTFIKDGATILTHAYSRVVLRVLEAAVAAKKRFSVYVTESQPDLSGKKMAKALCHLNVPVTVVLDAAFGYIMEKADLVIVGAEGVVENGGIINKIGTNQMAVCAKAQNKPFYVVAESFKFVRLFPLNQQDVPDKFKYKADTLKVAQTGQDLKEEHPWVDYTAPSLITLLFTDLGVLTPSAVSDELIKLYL

eIF2Bα^V183F [2] = target: T2, eIF2Bα^V183F (Homo sapiens, UniProt Q14232, V183F); assay: Size-exclusion chromatography of recombinant eIF2Bα V183F, alone or with eIF2B(βδγε); format: biochemical; conditions: SEC, eIF2Bα V183F alone
T2 construct: made in house; host or cells: E. coli BL21(DE3)
T2 sequence (Q14232 1-305 V183F): T1 sequence (Q14232 1-305 E198K) with V183F, K198E
Protocol: Purified proteins were thawed and centrifuged at 20,000 × g, 10 min, 4 °C to remove any potential precipitate. Concentrations of eIF2B(βδγε) and eIF2Bα were normalized to 2 μM and 2.4 μM, respectively. 0.2 mL of each mixture was injected onto a Superose 6 Increase 10/300 column connected to an AKTA Pure 25 FPLC system (GE Healthcare). The system was run at 0.5 mL/min for 1 h using 25 mM HEPES, 200 mM KCl, 2 mM MgCl2, 1 mM DTT, pH 7.5 as the mobile phase. For conditions with ISRIB, the protein samples and mobile phase were supplemented with 500 nM ISRIB. For conditions with F6P, the protein samples and mobile phase were supplemented with 200 μM F6P. UV280 measurements were obtained directly by the instrument.

eIF2Bα = target: T3, eIF2Bα (Homo sapiens, UniProt Q14232); assay: Isothermal titration calorimetry, wild-type eIF2Bα; format: binding
T3 construct: made in house; host or cells: E. coli BL21(DE3)
T3 sequence (Q14232 1-305): T1 sequence (Q14232 1-305 E198K) with K198E
Protocol: (§2) Interactions between recombinant protein and sugar phosphates were conducted with a MicroCal PEAQ-ITC (Malvern Panalytical Inc.). Experiments were performed in 25 mM HEPES, 150 mM NaCl, pH 7.5 at 20 °C. The sugar phosphate concentration in the syringe was 1 mM or 1.5 mM, and ~3.5 μL aliquots were injected into cells containing 300 μL eIF2Bα or eIF2B(βδγε) at a concentration of 20–30 μM. The final titration curves were fitted using MicroCal ITC data analysis software, assuming a single binding site per monomer.

eIF2B(βδγε) = target: T4, eIF2B(βδγε) (Homo sapiens, UniProt P49770+Q9UI10); assay: Isothermal titration calorimetry, eIF2B(βδγε) subcomplex; format: binding; conditions: ITC
T4 construct: made in house
T4 sequence (P49770 whole entry): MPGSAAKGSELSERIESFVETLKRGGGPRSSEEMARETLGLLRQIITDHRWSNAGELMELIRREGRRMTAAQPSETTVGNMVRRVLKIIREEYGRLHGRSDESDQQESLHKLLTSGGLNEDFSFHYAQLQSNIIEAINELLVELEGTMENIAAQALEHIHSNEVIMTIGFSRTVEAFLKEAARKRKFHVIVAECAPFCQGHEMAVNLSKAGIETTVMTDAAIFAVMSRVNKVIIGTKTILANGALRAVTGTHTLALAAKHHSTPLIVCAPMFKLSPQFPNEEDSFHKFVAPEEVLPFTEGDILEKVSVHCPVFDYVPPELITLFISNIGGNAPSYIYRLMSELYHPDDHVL
T4 sequence (Q9UI10 whole entry): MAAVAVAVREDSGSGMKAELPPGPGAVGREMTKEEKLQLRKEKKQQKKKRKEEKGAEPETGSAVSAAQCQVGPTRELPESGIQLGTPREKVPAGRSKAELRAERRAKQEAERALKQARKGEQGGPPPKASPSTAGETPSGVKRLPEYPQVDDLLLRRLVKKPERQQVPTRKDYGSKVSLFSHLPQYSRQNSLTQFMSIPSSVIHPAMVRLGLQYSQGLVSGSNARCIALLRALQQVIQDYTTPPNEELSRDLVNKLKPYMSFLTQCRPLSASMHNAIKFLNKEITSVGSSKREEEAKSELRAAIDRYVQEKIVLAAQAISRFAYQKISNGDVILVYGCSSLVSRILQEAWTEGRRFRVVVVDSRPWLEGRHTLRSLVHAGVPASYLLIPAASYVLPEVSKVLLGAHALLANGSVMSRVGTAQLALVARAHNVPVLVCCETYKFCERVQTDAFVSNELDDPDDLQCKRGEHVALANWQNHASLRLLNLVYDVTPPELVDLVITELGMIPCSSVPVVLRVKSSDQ
T4 sequence (Q9NR50 whole entry partner): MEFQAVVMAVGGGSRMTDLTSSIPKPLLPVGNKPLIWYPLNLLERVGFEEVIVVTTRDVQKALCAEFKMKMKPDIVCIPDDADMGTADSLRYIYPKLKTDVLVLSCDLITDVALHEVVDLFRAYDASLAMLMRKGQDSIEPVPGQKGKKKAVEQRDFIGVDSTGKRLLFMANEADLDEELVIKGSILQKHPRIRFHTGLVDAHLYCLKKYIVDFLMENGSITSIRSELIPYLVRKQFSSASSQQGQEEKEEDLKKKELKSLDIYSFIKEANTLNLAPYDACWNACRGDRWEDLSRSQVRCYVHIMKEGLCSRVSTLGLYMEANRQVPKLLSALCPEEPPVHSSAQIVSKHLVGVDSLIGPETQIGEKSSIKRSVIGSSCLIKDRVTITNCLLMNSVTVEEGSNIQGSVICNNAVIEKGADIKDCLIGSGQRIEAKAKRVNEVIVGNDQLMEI
T4 sequence (Q13144 whole entry partner): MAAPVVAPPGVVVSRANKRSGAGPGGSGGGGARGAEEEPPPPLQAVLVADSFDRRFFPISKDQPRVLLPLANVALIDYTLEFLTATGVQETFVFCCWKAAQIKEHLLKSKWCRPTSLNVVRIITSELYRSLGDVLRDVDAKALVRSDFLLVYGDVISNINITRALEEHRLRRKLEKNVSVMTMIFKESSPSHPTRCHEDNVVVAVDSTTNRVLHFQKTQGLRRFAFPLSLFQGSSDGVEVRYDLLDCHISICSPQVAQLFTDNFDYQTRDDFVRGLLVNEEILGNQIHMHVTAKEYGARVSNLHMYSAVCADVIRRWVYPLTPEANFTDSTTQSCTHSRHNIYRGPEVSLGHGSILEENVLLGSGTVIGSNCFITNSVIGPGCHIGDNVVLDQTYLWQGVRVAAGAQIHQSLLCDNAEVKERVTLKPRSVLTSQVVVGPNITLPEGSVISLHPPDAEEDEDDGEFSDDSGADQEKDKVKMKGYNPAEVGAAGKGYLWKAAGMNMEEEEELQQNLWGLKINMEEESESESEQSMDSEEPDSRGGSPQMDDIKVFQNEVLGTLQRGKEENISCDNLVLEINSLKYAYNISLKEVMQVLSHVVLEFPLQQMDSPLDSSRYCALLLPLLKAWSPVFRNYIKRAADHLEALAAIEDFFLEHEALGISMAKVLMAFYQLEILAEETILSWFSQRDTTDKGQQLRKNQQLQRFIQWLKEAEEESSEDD
Protocol: as §2

[3] = target: T5, eIF2B in eIF2Bα^E198K HEK293T lysate (Homo sapiens, UniProt P49770+Q14232+Q9UI10, E198K); assay: GEF activity assay with eIF2Bα E198K HEK293T lysate; format: biochemical
T5 construct: endogenous in cells; host or cells: HEK293T, CRISPR knock-in eIF2Bα E198K (homozygous), lysate
T5 sequence (P49770 whole entry, one chain of several): as the sequence (P49770 whole entry) above
T5 sequence (Q9UI10 whole entry, one chain of several): as the sequence (Q9UI10 whole entry) above
T5 sequence (Q9NR50 whole entry partner, one chain of several): as the sequence (Q9NR50 whole entry partner) above
T5 sequence (Q13144 whole entry partner, one chain of several): as the sequence (Q13144 whole entry partner) above
Protocol: Bodipy-FL-GDP-loaded eIF2 was used as a substrate for recombinant eIF2B. The assay was performed in 384-well plates. Reactions were read on a SpectraMax i3x plate reader (Molecular Devices) using the instrument’s Softmax Pro software with the following parameters: plate temperature = 25 °C; excitation wavelength = 485 nm (15 nm width); emission wavelength = 535 nm (25 nm width); read duration = 30 min at 45 s intervals. Data were analyzed in Prism. GDP release half-lives were calculated by fitting single-exponential decay curves.
For unbiased screening, MIDAS metabolite libraries at 10 mM stock concentration were dispensed into wells of the assay plate using an Echo Acoustic Liquid Handler (Labcyte). In a final assay volume of 10 μL/well, the following conditions were kept constant: 25 nM Bodipy-FL-GDP-loaded eIF2, 4 nM phospho-eIF2, 0.1 mM GDP, 1 mg/mL BSA, 1 nM eIF2B, 10 μM metabolite. A single well was run for each metabolite. For targeted experiments with recombinant wild-type and mutant eIF2Bα, the following conditions were used: 50 nM Bodipy-FL-GDP-loaded eIF2, 0.1 mM GDP, 1 mg/ml BSA, 20 nM eIF2B. For targeted experiments with HEK293T lysates, the following conditions were used: 50 nM Bodipy-FL-GDP-loaded eIF2, 0.1 mM GDP, 1 mg/ml BSA, 0.1 or 0.3 mg/ml lysates.

O=C(CO)[C@@H](O)[C@H](O)[C@H](O)COP(=O)(O)O [F6P, fructose-6-phosphate]
Kd (eIF2Bα^E198K; eIF2Bα E198K): 99 ± 12 µM
reduction of affinity of eIF2Bα E198K (eIF2Bα^E198K; compared with wild-type eIF2Bα): 11 fold
Kd (eIF2Bα^V183F [1]): 6.3 ± 0.7 µM
monomer-to-dimer shift of eIF2Bα V183F (eIF2Bα^V183F [2]): induced a partial shift from the monomer to the dimer peak
Kd (eIF2Bα; ITC, wild-type eIF2Bα): 9.4 ± 2.3 µM
ITC binding isotherm, heat per mole of injectant (eIF2Bα; molar ratio 0.037369): -7.609 kcal/mol
ITC binding isotherm, heat per mole of injectant (eIF2Bα; molar ratio 0.225339): -7.342 kcal/mol
ITC binding isotherm, heat per mole of injectant (eIF2Bα; molar ratio 0.415168): -6.77 kcal/mol
ITC binding isotherm, heat per mole of injectant (eIF2Bα; molar ratio 0.606855): -6.002 kcal/mol
ITC binding isotherm, heat per mole of injectant (eIF2Bα; molar ratio 0.8004): -5.049 kcal/mol
ITC binding isotherm, heat per mole of injectant (eIF2Bα; molar ratio 0.995804): -4.011 kcal/mol
ITC binding isotherm, heat per mole of injectant (eIF2Bα; molar ratio 1.19307): -3.038 kcal/mol
ITC binding isotherm, heat per mole of injectant (eIF2Bα; molar ratio 1.39219): -2.241 kcal/mol
ITC binding isotherm, heat per mole of injectant (eIF2Bα; molar ratio 1.59317): -1.647 kcal/mol
ITC binding isotherm, heat per mole of injectant (eIF2Bα; molar ratio 1.796): -1.223 kcal/mol
ITC binding isotherm, heat per mole of injectant (eIF2Bα; molar ratio 2.0007): -0.9255 kcal/mol
ITC binding isotherm, heat per mole of injectant (eIF2Bα; molar ratio 2.20725): -0.7147 kcal/mol
ITC binding isotherm, heat per mole of injectant (eIF2Bα; molar ratio 2.41567): -0.5629 kcal/mol
ITC binding isotherm, heat per mole of injectant (eIF2Bα; molar ratio 2.62594): -0.4515 kcal/mol
ITC binding isotherm, heat per mole of injectant (eIF2Bα; molar ratio 2.83807): -0.3681 kcal/mol
ITC binding isotherm, heat per mole of injectant (eIF2Bα; molar ratio 3.05206): -0.3043 kcal/mol
ITC binding isotherm, heat per mole of injectant (eIF2Bα; molar ratio 3.2679): -0.2547 kcal/mol
ITC binding isotherm, heat per mole of injectant (eIF2Bα; molar ratio 3.48561): -0.2155 kcal/mol
ITC binding isotherm, heat per mole of injectant (eIF2Bα; molar ratio 3.70517): -0.184 kcal/mol
interaction with eIF2B(βδγε) subcomplex (eIF2B(βδγε)): did not interact appreciably
effect on GEF activity of eIF2Bα E198K lysate [3]: does not respond
